This note sets out measurements from US8884023B2, “Pyrano [3,2-D][1,3]thiazole as glycosidase inhibitors” (priority 2011, dated 2014).

For experiment [1], the target named is T1, His-Tagged hOGA (human O-GlcNAcase) (Homo sapiens, UniProt O60502).
T1 sequence (O60502 1-916): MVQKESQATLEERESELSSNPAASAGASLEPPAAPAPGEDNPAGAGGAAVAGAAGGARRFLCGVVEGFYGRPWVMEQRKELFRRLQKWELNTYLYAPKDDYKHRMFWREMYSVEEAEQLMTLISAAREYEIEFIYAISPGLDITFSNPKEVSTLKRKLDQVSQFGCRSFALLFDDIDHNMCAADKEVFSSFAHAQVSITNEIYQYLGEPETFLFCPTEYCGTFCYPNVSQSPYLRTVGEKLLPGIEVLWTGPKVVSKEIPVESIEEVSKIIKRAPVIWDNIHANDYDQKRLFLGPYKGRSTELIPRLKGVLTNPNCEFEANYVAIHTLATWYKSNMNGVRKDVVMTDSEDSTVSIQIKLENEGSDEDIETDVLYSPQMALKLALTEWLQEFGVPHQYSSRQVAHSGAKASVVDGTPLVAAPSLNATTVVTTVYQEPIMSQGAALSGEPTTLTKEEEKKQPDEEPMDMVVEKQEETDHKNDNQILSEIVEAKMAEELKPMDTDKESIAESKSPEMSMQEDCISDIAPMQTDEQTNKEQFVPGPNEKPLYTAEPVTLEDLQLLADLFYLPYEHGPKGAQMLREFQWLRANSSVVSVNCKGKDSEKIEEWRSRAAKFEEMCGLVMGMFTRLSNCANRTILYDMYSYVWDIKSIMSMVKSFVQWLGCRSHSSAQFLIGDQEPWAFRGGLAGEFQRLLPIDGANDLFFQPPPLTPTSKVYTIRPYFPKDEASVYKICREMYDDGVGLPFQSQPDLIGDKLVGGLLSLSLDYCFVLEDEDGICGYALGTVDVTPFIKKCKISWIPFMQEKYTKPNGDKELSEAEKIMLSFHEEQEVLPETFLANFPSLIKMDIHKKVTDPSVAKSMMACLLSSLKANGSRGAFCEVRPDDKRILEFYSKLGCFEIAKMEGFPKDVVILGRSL
The experiment in a line: biochemical. Here is the method:
Human O-GlcNAcase Enzyme Inhibition Assay
The following reaction components were added to a final volume of 10 μL in McIlvaine's Buffer (pH 6.5):
20 nM His-Tagged hOGA and 10 μM Fluoroscein mono-beta-D-(2-deoxy-2-N-acetyl) glucopyranoside (FL-GlcNAc; Marker Gene Technologies Inc, Part #M1485). […] The amount of fluorescence measured was plotted against the concentration of inhibitor to produce a sigmoidal dose response curve, from which an IC50 was calculated.

Another experiment has as its target T2, O-GlcNAcase (UniProt Q8VIJ5).
T2 sequence (Q8VIJ5 1-916): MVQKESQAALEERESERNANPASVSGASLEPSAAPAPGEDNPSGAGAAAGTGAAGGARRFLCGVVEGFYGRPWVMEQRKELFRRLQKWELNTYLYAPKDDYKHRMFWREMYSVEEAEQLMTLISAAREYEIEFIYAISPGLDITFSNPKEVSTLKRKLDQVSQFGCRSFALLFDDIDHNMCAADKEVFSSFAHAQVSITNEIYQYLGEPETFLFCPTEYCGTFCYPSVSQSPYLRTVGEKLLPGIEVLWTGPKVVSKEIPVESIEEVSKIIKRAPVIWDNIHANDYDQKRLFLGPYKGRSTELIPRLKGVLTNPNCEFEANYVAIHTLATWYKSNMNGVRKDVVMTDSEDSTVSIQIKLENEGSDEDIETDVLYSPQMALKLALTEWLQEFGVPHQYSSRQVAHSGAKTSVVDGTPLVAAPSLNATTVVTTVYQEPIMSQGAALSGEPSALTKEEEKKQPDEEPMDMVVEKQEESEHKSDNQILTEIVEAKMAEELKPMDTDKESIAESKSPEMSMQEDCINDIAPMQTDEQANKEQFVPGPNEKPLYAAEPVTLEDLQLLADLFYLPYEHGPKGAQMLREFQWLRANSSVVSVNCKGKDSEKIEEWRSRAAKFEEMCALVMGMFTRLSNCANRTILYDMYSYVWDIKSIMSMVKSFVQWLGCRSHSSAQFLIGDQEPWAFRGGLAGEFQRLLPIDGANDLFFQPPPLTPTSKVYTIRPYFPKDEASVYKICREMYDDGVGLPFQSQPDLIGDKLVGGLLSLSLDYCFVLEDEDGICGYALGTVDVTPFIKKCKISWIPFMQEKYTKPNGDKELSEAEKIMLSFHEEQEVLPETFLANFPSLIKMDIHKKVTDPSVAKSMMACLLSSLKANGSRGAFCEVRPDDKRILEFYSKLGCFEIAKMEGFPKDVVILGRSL
The experiment is classed as cell-based. From the text: Assay for the Determination of Cellular Activity for Compounds that Inhibit O-GlcNAcase Activity
Inhibition of O-GlcNAcase, which removes O-GlcNAc from cellular proteins, results in an increase in the level of O-GlcNAcylated proteins in cells. An increase in the O-GlcNAcylation of cellular proteins can be measured by an antibody, such as CTD110.6, that binds O-GlcNAcylated proteins. The amount of O-GlcNAcylated protein can be determined by the enzyme linked immunoabsorbant assay (ELISA) technique.
Cell lines, such as rat B35, rat PC-12 and human SH-SY5Y cells, expressing endogenous levels of O-GlcNAcase, could be utilized. Cells were plated in 96-well plates at a density of approximately 10,000 cells/well. Compounds to be tested were dissolved in DMSO as 10 mM stock solution, and then diluted first with DMSO and then culture media using the Bravo workstation. Cells were treated with diluted compounds for approximately 16 hours. […] To prepare a cell lysate, the media from compound treated cells were removed, and the cells were washed once with Dulbecco's phosphate buffered saline (DPBS) and then lysed for 30 minutes in 100 μl/well of ice cold RIPA buffer containing a protease inhibitor cocktail.
The ELISA portion of the assay was performed in EIA/RIA plates that were coated overnight at 4 C with 80 μl/well of cell lysate. The following day the wells were washed 6 times with 200 μl of wash buffer (0.05% Tween20 in DPBS). The wells were blocked with 200 μl blocking buffer (1% BSA, 0.05% Tween20 in DPBS) for 1 h at room temperature. Each well was then washed 6 times with 200 μl of wash buffer. The anti-O-GlcNAc antibody CTD110.6 (Covance, Princeton, N.J.) was added at 100 μl/well at a concentration of 10 μg/ml. The plates were incubated for 1 h at room temperature. The wells were then washed 6 times with 200 μl/well of wash buffer. To detect the amount of CTD110.6 bound to the cell lysate, alkaline phosphatase conjugated goat anti-mouse IgM (diluted 1:500 in blocking buffer) was added at 100 μl/well and incubated for 45 min at room temperature. Each well was then washed 6 times with 200 μl/well of wash buffer. PNPP tablets dissolved in diethanolamine substrate buffer and 100 μl/well were added as detection reagent.
The amount of O-GlcNAcylated protein, as detected by the ELISA assay, was plotted for each concentration of test compound using standard curve fitting algorithms for sigmoidal dose response curves. The values for a four parameter logistic curve fit of the data were determined, with the inflection point of the curve being the potency value for the test compound.

[2] abbreviates: read-out: OGA enzyme inhibition (IC50).
Setting [3] is: cells expressing endogenous O-GlcNAcase (such as rat B35, rat PC-12, human SH-SY5Y), approximately 16 hours treatment; read-out: OGA cellular inhibition (EC50).

Where two headings read alike, the source gives them in different places.

As usually defined, the IC50 is the concentration at which inhibition is half-maximal. By EC50 is commonly meant the concentration at which the effect is half-maximal. On to `CCNC1=N[C@@H]2[C@@H](O)[C@H](O)[C@@H](Cn3cc(COc4cccc(C)c4)nn3)O[C@@H]2S1` [compound 77], for which the IC50 in experiment [1] (setting [2]) is < 100 nM. Besides, on O-GlcNAcase (setting [3]), the EC50 was in the range of 100 to 500 nM.

As for `CCNC1=N[C@@H]2[C@@H](O)[C@H](O)[C@@H](Cn3cc(COc4cccc(Cl)c4)nn3)O[C@@H]2S1` [compound 78], the IC50 in experiment [1] is < 100 nM. Further, on O-GlcNAcase (setting [3]), the EC50 is < 100 nM.

On to `CCNC1=N[C@@H]2[C@@H](O)[C@H](O)[C@@H](Cn3cc(COc4cccc(F)c4)nn3)O[C@@H]2S1` [compound 79], for which, in experiment [1] (setting [2]), the IC50 was < 100 nM. In addition, the EC50 at O-GlcNAcase (setting [3]) was 100 to 500 nM.

On to `CCNC1=N[C@@H]2[C@@H](O)[C@H](O)[C@@H](Cn3cc(COc4cccc(OC)c4)nn3)O[C@@H]2S1` [compound 80], for which the IC50 in experiment [1] is < 100 nM. In addition, at O-GlcNAcase (setting [3]), the EC50 was 100 to 500 nM.

Regarding `CCNC1=N[C@@H]2[C@@H](O)[C@H](O)[C@@H](Cn3cc(COc4cccc(S(C)(=O)=O)c4)nn3)O[C@@H]2S1` [compound 81], the IC50 in experiment [1] was < 100 nM. For the same molecule, the EC50 at O-GlcNAcase (setting [3]) was > 1000 nM.

On to `CCNC1=N[C@@H]2[C@@H](O)[C@H](O)[C@@H](Cn3cc(COc4ccccc4C#N)nn3)O[C@@H]2S1` [compound 82], for which the IC50 in experiment [1] is < 100 nM. Besides, on O-GlcNAcase (setting [3]), the EC50 is > 1000 nM.

On to `CCNC1=N[C@@H]2[C@@H](O)[C@H](O)[C@@H](Cn3cc(COc4ccccc4O)nn3)O[C@@H]2S1` [compound 84], for which, in experiment [1], the IC50 is 100 to 500 nM. The EC50 on O-GlcNAcase (setting [3]) was > 1000 nM.

Take `CCNC1=N[C@@H]2[C@@H](O)[C@H](O)[C@@H](Cn3cc(COc4ccccc4Cl)nn3)O[C@@H]2S1` [compound 86]: the IC50 in experiment [1] is < 100 nM. Moreover, at O-GlcNAcase (setting [3]), the EC50 is < 100 nM.

Consider `CCNC1=N[C@@H]2[C@@H](O)[C@H](O)[C@@H](Cn3cc(COc4ccccc4C)nn3)O[C@@H]2S1` [compound 87], for which the IC50 in experiment [1] (setting [2]) was < 100 nM. Besides, at O-GlcNAcase (setting [3]), the EC50 lay in the range of 500 to 1000 nM.

As for `CCNC1=N[C@@H]2[C@@H](O)[C@H](O)[C@@H](Cn3cc(COc4ccccc4OC)nn3)O[C@@H]2S1` [compound 88], the IC50 in experiment [1] is < 100 nM. Moreover, on O-GlcNAcase (setting [3]), the EC50 is > 1000 nM.

With `CCNC1=N[C@@H]2[C@@H](O)[C@H](O)[C@@H](Cn3cc(COc4ccccc4F)nn3)O[C@@H]2S1` [compound 89], the IC50 in experiment [1] (setting [2]) was < 100 nM. Also, the EC50 at O-GlcNAcase (setting [3]) lay within 100 to 500 nM.

`CCNC1=N[C@@H]2[C@@H](O)[C@H](O)[C@@H](Cn3cc(COc4ccc(C(C)O)cc4)nn3)O[C@@H]2S1` (stereo partly shown) [compound 90]: the half-inhibitory concentration (IC50) in experiment [1] was < 100 nM. The EC50 at O-GlcNAcase (setting [3]) was > 1000 nM.

With `CCNC1=N[C@@H]2[C@@H](O)[C@H](O)[C@@H](Cn3cc(COc4ccc(C)cc4)nn3)O[C@@H]2S1` [compound 91], the IC50 in experiment [1] (setting [2]) fell in the range of 100 to 500 nM. Further, the concentration giving a half-maximal response (EC50) at O-GlcNAcase (setting [3]) is > 1000 nM.

As to `CCNC1=N[C@@H]2[C@@H](O)[C@H](O)[C@@H](Cn3cc(COc4ccc(Cl)cc4)nn3)O[C@@H]2S1` [compound 92], in experiment [1] (setting [2]), the IC50 is < 100 nM. The EC50 at O-GlcNAcase (setting [3]) fell in the range of 100 to 500 nM.

In the case of `CCNC1=N[C@@H]2[C@@H](O)[C@H](O)[C@@H](Cn3cc(COc4ccc(F)cc4)nn3)O[C@@H]2S1` [compound 93], the IC50 in experiment [1] (setting [2]) is < 100 nM. In addition, the EC50 on O-GlcNAcase (setting [3]) is > 1000 nM.

As for `CCNC1=N[C@@H]2[C@@H](O)[C@H](O)[C@@H](Cn3cc(COc4ccc(C(C)(C)C)cc4)nn3)O[C@@H]2S1` [compound 94], the IC50 in experiment [1] fell in the range of 100 to 500 nM. Moreover, the EC50 on O-GlcNAcase (setting [3]) was 100 to 500 nM.

`CCNC1=N[C@@H]2[C@@H](O)[C@H](O)[C@@H](Cn3cc(-c4ccccc4)nn3)O[C@@H]2S1` [compound no. 2, (3aR,5R,6S,7R,7aR)-2-(ethylamino)-5-[(4-phenyl-1H-1,2,3-triazol-1-yl)methyl]-5,6,7,7a-tetrahydro-3aH-pyrano[3,2-d][1,3]thiazole-6,7-diol]: the IC50 in experiment [1] (setting [2]) lay within 100 to 500 nM. For the same molecule, the EC50 on O-GlcNAcase (setting [3]) is > 1000 nM.

For `CCNC1=N[C@@H]2[C@@H](O)[C@H](O)[C@@H](COC(=O)OC(C)(C)C)O[C@@H]2S1` [compound no. 3, tert-butyl [(3aR,5R,6S,7R,7aR)-2-(ethylamino)-6,7-dihydroxy-5,6,7,7a-tetrahydro-3aH-pyrano[3,2-d][1,3]thiazol-5-yl]methyl carbonate], in experiment [1] (setting [2]), the IC50 lay within 100 to 500 nM. Moreover, the EC50 on O-GlcNAcase (setting [3]) is < 100 nM.

For the molecule `CCNC1=N[C@@H]2[C@@H](O)[C@H](O)[C@@H](CF)O[C@@H]2S1` [compound no. 4, (3aR,5S,6S,7R,7aR)-2-(ethylamino)-5-(fluoromethyl)-5,6,7,7a-tetrahydro-3aH-pyrano[3,2-d][1,3]thiazole-6,7-diol], the IC50 in experiment [1] was < 100 nM. Besides, at O-GlcNAcase (read-out: OGA cellular inhibition (EC50); cells expressing endogenous O-GlcNAcase (such as rat B35, rat PC-12, human SH-SY5Y), approximately 16 hours treatment), the EC50 was in the range of 100 to 500 nM.

`CCNC1=N[C@@H]2[C@@H](O)[C@H](O)[C@@H](CBr)O[C@@H]2S1` [compound no. 5, (3aR,5S,6S,7R,7aR)-5-(bromomethyl)-2-(ethylamino)-5,6,7,7a-tetrahydro-3aH-pyrano[3,2-d][1,3]thiazole-6,7-diol]: the IC50 in experiment [1] (setting [2]) is < 100 nM. Moreover, the EC50 on O-GlcNAcase (setting [3]) fell in the range of 100 to 500 nM.
